Patent publication US20230119013A1, “N-CYANOPYRROLIDINES WITH ACTIVITY AS USP30 INHIBITORS” (MISSION THERAPEUTICS LIMITED, priority 2020, published 2023)
Where two headings read alike, the source gives them in different places.

Experiments:
5-HT2b = target: T1, 5-HT2b (Homo sapiens, UniProt P41595); experiment: Eurofins CEREP SafetyScreen44 panel, 5-HT2b; format: binding
T1 construct: purchased Eurofins CEREP (contract screening panel) SafetyScreen44
Text: Example 2 was subject to pharmacological profiling in the Eurofins CEREP SafetyScreen44 panel.

TOM20 ubiquitylation = experiment: TOM20-ubiquitylation assay; format: cell-based, human; conditions: antimycin A/oligomycin mitophagy trigger
Text: Human cell lines can be challenged with mitochondrial depolarizing agents (ionophores (eg. CCCP, valinomycin), mitochondrial complex inhibitors (oligomycin, antimycin A)) to induce ubiquitylation of TOM20, which is then further promoted in the presence of USP30 inhibitors. TOM20 ubiquitylation is subsequently assessed through western blotting of the cell lysates, with TOM20 ubiquitylation adduct detection possible due to an 8 kDa molecule weight increase for each molecule of ubiquitin added, resulting in laddering of a TOM20 immunoreactive band. TOM20-ubiquitylation levels can be quantified using chemiluminescence densitometry of laddered immunoreactive bands.

Cathepsin B = Cathepsin B (Homo sapiens, UniProt P07858); experiment: Cathepsin IC50, Cathepsin B; format: biochemical
Cathepsin K = Cathepsin K (Homo sapiens, UniProt P43235); experiment: Cathepsin IC50, Cathepsin K; format: biochemical
Cathepsin K, sequence (P43235 115-329, species assumed): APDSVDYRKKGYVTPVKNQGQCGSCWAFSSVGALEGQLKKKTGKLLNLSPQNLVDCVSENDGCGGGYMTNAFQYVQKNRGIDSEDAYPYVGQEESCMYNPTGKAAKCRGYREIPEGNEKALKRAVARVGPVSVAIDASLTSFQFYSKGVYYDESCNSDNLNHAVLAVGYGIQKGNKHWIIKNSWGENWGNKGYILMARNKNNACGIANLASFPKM

USP30 = target: T2, USP30 (Homo sapiens, UniProt Q70CQ3); experiment: USP30 endogenous cellular target engagement western blot assay (Cell TE WB); format: cell-based; conditions: Hela cells stably overexpressing YFP-Parkin, 1 hour
T2 construct: USP30 endogenous cellular target engagement western blot (WB) assay; endogenous in cells; host or cells: HeLa cells stably overexpressing YFP-Parkin
T2 sequence (Q70CQ3 whole entry): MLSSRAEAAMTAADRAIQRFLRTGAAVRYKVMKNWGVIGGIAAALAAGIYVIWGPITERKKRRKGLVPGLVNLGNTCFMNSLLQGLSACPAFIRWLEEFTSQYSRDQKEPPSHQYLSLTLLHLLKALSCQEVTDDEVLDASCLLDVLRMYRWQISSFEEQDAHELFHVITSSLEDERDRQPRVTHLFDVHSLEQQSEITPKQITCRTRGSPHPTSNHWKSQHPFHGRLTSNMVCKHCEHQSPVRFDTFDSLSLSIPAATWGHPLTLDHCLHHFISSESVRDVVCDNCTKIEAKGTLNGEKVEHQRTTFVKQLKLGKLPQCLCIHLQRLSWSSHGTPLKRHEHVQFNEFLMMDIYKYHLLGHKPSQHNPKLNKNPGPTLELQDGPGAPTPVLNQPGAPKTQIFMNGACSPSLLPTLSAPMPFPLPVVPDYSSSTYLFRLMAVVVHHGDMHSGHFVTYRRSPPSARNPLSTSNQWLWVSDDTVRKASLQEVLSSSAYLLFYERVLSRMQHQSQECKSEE
Method: Hela cells stably overexpressing YFP-Parkin were seeded into 6 well dishes. Once adhered, cells were treated with appropriate concentrations of test compounds or vehicle control for 1 hour at 37° C., 5% CO2. Whole cell lysates were prepared by scraping the cells into cold PBS, centrifuging and lysing in lysis buffer (50 mM Tris-base, pH 7.5, 50 mM NaCl, 1% NP-40/Igepal CA-630, 2 mM MgCl2, 10% Glycerol, 5 mM beta-mercaptoethanol, cOmplete mini tablets EDTA free (Roche), PhosStop tablets (Roche)) for 10 mins. The equivalent of 20 μg of protein from the cleared cell lysate was incubated with a final conc of 2.5 μM HA-Ahx-Ahx-Ub-VME probe at room temperature. The reaction was stopped by addition of 5×SDS sample loading buffer and proteins separated by SDS PAGE and western blotting. USP30 was detected using an anti-USP30 Sheep S746D antibody (MRC PPU Reagents and Services) and a rabbit anti sheep secondary IgG (H+L) horseradish peroxidase conjugated (Thermo #31480) and visualised using ECL reagent (GE #RPN2109) on a GE LAS4000 imager. Target engagement was measured by quantitation of the bands corresponding to USP30 and USP30 bound to the Ub-VME probe and expression of this proportion compared to vehicle treated control.
MDR1-MDCK (Madin-Darby Canine Kidney cell monolayer) (in vitro) flux assay. Cell TE WB: USP30 endogenous cellular target engagement western blot (WB) assay. […]

[1] = system: T3, UCHL1, USP1, USP2, USP6, USP9x, USP10, USP15, USP16, USP20, USP21, USP22, USP25, USP28, USP35, USP36, USP46/UAF1; experiment: DUB biochemical IC50 assays (off-target panel); conditions: each of UCHL1, USP1, USP9x, USP10, USP15, USP16, USP20, USP21, USP22, USP25, USP28, USP35, USP36, USP46/UAF1; read-out: IC50 (μM) against DUB panel
T3 construct: other: each of UCHL1, USP1, USP9x, USP10, USP15, USP16, USP20, USP21, USP22, USP25, USP28

[2] = system: USP2, USP10, USP16, USP21, USP22, USP25, USP28; experiment: DUB IC50, seven DUBs; format: biochemical; conditions: range over the seven DUBs
[3] = system: T4, USP2, USP10, USP16, USP21, USP22, USP25, USP28; experiment: DUB IC50, seven DUBs; format: biochemical; conditions: range over the seven DUBs
T4 construct: DUB IC50 (μM) USP2, USP10, USP16, USP21, USP22, USP25, USP28; other: range over the seven DUBs

[4] = system: T5, UCHL1, USP1, USP2, USP6, USP9x, USP10, USP15, USP16, USP20, USP21, USP22, USP25, USP28, USP35, USP36, USP46/UAF1; experiment: DUB biochemical IC50 assays (off-target panel); conditions: each of UCHL1, USP1, USP2, USP6, USP9x, USP10, USP15, USP16, USP20, USP21, USP22, USP25, USP28, USP35, USP36, USP46/UAF1; read-out: IC50 (μM) against DUB panel
T5 construct: other: each of UCHL1, USP1, USP2, USP6, USP9x, USP10, USP15, USP16, USP20, USP21, USP22, U

TK6 cells = experiment: In vitro micronucleus assay in TK6 cells; format: cell-based; conditions: 27 hours recovery
Method: The micronucleus assay may be used to determine if a compound is genotoxic by evaluating the presence of micronuclei. Micronuclei may contain chromosome fragments produced from DNA breakage (clastogens) or whole chromosomes produced by disruption of the mitotic apparatus (aneugens).
Example 1 was assessed in the bacterial reverse mutation assay (Ames) and in vitro micronucleus assay. All in vitro tests were conducted with and without exogenous metabolic activation using concentrations up to those limited by cytotoxicity or insolubility.
Induction of chromosome damage was assessed using the in vitro micronucleus assay in TK6 cells. Example 1 was negative for induction of micronuclei when incubated for 3 hours in the presence of exogenous metabolic activation followed by 27 hours recovery, and also when incubated for 27 hours in the absence of exogenous metabolic activation followed by 27 hours recovery.

T1 sequence (P41595 whole entry): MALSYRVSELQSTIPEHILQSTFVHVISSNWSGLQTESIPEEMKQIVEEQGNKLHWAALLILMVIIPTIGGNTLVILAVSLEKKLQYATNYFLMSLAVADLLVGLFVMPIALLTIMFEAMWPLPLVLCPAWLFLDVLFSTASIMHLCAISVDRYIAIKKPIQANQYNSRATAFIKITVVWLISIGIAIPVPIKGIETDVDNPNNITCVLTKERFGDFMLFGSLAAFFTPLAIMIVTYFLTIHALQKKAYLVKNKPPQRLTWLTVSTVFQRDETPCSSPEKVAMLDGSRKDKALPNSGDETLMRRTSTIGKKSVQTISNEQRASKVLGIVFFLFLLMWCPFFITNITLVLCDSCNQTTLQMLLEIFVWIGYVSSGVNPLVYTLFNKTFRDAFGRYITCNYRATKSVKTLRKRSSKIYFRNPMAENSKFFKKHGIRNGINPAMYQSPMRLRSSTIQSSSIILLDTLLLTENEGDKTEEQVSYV

| SMILES | inhibition at 10 µM (5-HT2b) [%] | TOM20-Ub 1.5-fold gain EC1.5x (μM) (TOM20 ubiquitylation) | IC50 (Cathepsin B) [µM] | IC50 (Cathepsin K) [µM] | EC50 (USP30) [µM] | IC50 [1] [µM] | DUB selectivity preference for USP30 v 7 DUBs [2] | IC50 [3] [µM] | IC50 [4] [µM] | induction of micronuclei (TK6 cells; 3 hours in the presence of exogenous metabolic activation) | induction of micronuclei (TK6 cells; 27 hours in the absence of exogenous metabolic activation) |
| --- | --- | --- | --- | --- | --- | --- | --- | --- | --- | --- | --- |
| C[C@@H]1C[C@@H](NC(=O)c2ncc(-c3cccc(OC(F)(F)F)c3)o2)CN1C#N [Example 2, N-((3R,5R)-1-Cyano-5-methylpyrrolidin-3-yl)-5-(3-(trifluoromethoxy)phenyl)oxazole-2-carboxamide] | 32 | 0.009 (n = 4) μM | > 30 | 9.8 | 0.007 | ≥ 4.7 | 940->20000 | ≥ 4.7 | – | – | – |
| COC[C@@H]1C[C@@H](NC(=O)c2ncc(-c3cccc(OC(F)(F)F)c3)o2)CN1C#N [Example 1, N-((3R,5S)-1-Cyano-5-(methoxymethyl)pyrrolidin-3-yl)-5-(3-(trifluoromethoxy)phenyl)oxazole-2-carboxamide] | – | 0.011 (n = 6) μM | 44.3 | 16.5 | – | – | 880-14380 | 4.4 to 71.9 | ≥ 4.4 | negative | negative |
